Here are results for 7 molecules from patent publication US9079859B2, “Synthetic lethal targeting of glucose transport” (AUCKLAND UNISERVICES LIMITED, priority 2011, dated 2015).

Data set [1] deals with RCC4 and RCC4/VHL cells. In kind it is cell-based. Here is the method:
Cell Viability Assays. For 2,3-bis[2-methoxy-4-nitro-5-sulfophenyl]-2H-tetrazolium-5-carboxanilide (XTT) assays, five thousand cells were plated in 96-well plates. The next day, vehicle (DMSO) or drug was added by serial dilution. Four days later, media were aspirated, XTT solution (0.3 mg/ml of XTT (Sigma), […] N-methyl dibenxopyrazine methyl sulfate (Sigma) in phenol red-free media) was added, and the plates were incubated at 37° C. for 1-2 hours. Metabolism of XTT was quantified by measuring the absorbance at 450 nm. IC50s were calculated using linear interpolation. For clonogenic survival assays, three hundred cells were plated per 60 mm tissue culture dish. The cells were allowed to attach overnight and then treated with vehicle or drug for 14 days. Colonies were fixed and stained with crystal violet (0.1% crystal violet in 95% ethanol). All conditions were measured in triplicate and each experiment was done in duplicate or triplicate. To determine necrosis, cells were treated with drug for a given time point. Media and cells were collected, centrifugated, and resuspended in 0.4% trypan blue (Invitrogen). Live and dead cells were counted on a hematocytometer.

Data set [2] relates to RCC4 cells. Briefly: Glucose uptake (2-deoxy-D-[3H]glucose), RCC4. The data set is classed as cell-based. As for the experimental part: Glucose Uptake. One hundred thousand cells were plated per well in a six-well plate. The next day, cells were treated with the indicated concentration of drug and incubated for the indicated time. Cells were then washed twice with phosphate-buffered saline, incubated in low-glucose medium for 30 minutes, and 3H-2-deoxyglucose (0.5 μCi) was added in 1 ml of glucose-free media for an additional hour. Cells were washed twice in PBS and lysed (0.2 N NaOH and 0.2% sodium dodecyl sulfate). Glucose uptake was quantified with a scintillation counter.

The test system of data set [3] is 786-O xenograft tumors. Briefly: FDG-PET imaging of glucose uptake in renal carcinoma xenograft. The data set is classed as in vivo, mice. The note with it: three daily doses (STF-35 11.6 mg/kg i.p.). Here is the method: In Vivo Studies. All experiments were approved by Stanford's Administrative Panel on Laboratory Animal Care (APLAC) and in accordance with both institutional and national guidelines. Five million cells were implanted subcutaneously into the flanks of nude mice (4-6 weeks old)(Charles River Laboratories). Tumors were measured with calipers. Volume was calculated by the following formula: width^2×0.5 length. Once tumors reached an average size of >20 mm^3, mice were randomized into vehicle (DMSO diluted in 16% cremaphor EL/PBS) or treated groups. Mice were treated with STF-35 (11.6 mg/kg for the first 3 days, followed by 7.8 mg/kg for the 7-9 days). Five-micron sections were cut for immunohistochemistry. Sections were counterstained with hematoxylin and eosin. For 2-[^18F]-fluoro-2-deoxy-glucose-positron emission tomography imaging, mice bearing tumors were fasted overnight. The next day, the mice were anesthetized with 2% isoflurane and injected intraperitoneally with 250 μCi of FDG. Mice were imaged for 10 minutes at one hour post-injection, using a Rodent R4 microPET system (Concorde Microsystems). Data were reconstructed into three-dimensional volumes using an ordered subset expectation maximization algorithm and were calibrated into units of percent injected dose per gram.

Data set [4] has as its system LC3. The note with it: leading to cell death; cited from earlier work.
The mark [5] stands for this setting: short-term (XTT) and/or long-term (clonogenic) survival assays.

Where two headings read alike, the source gives them in different places.

As for `O=CC[C@@H](O)[C@H](O)[C@H](O)CO` [2-DG, 2-deoxy-D-glucose], in data set [1], the “cytotoxicity to RCC4 and RCC4/VHL cells” value was “not cytotoxic”.
Take `Cc1cccc(Nc2nc(-c3ccncc3)cs2)c1` [STF-62247]: the “glucose uptake in VHL-defective cells, analogs and control cytotoxins” value in data set [2] is listed as “did not decrease”. Besides, in data set [3], the “glucose (FDG) uptake within the tumors by FDG-PET” value is given as “did not have a decrease”. In addition, the “autophagy in VHL-deficient RCCs” value in data set [4] is reported as “induce autophagy”.
`O=C(O)C(=O)CBr` [bromopyruvate]: the “cytotoxicity to RCC4 and RCC4/VHL cells” value in data set [1] (setting [5]) is on record as “toxic to both”.
In the case of `Clc1ccccc1C(c1ccccc1)(c1ccccc1)n1ccnc1` [clotrimazole], in data set [1], the “cytotoxicity to RCC4 and RCC4/VHL cells” value is reported as “toxic to both”.
`CC(=O)CC(=O)Nc1ccc(Cl)c(C(F)(F)F)c1` [fasentin]: the “cytotoxicity to RCC4 and RCC4/VHL cells” value in data set [1] (setting [5]) is “relatively non-toxic”.
`O=C(O)c1nn(Cc2ccc(Cl)cc2Cl)c2ccccc12` [lonidamine]: in data set [1], the “cytotoxicity to RCC4 and RCC4/VHL cells” value is recorded as “toxic to both”.
In the case of `O=C(CCc1ccc(O)cc1)c1c(O)cc(O)cc1O` [phloretin], in data set [1], the “cytotoxicity to RCC4 and RCC4/VHL cells” value is on record as “toxic to both”.
